# Test results from article PMC8619434 (Viruses, 2021).
# Structures can show the parent of a compound that is named as a salt. Where two headings read alike, the source gives them in different places.
# Tests used:
# [1] = tested on: SARS-CoV-2 spike protein pseudovirus; experiment: microbe, parasite or virus in culture; type: cell-based
# VSV-G pseudovirus = experiment: microbe, parasite or virus in culture; type: cell-based, vesicular stomatitis virus; settings: for activity at 10 µM: Pseudovirus, 293T/ACE2, read-out: % Infectivity of VSV-G pv
# SARS-CoV-1-S pseudovirus = type: cell-based
# MERS-CoV-S pseudovirus = type: cell-based
# in vitro = settings: human
# 293T-ACE2 cells = settings: for % viability (Table S3): 10 µM
# [2] = predictions for the uncharged form; ref https://go.drugbank.com; cited from earlier work
# [3] = values for the salts; ref chemical supplier datasheets; cited from earlier work
# [4] = tested on: SARS-CoV-2 spike protein pseudovirus; type: cell-based
# [5] = tested on: SARS-CoV-2 spike protein pseudovirus; type: cell-based; remark: listed apart in the source
# [6] = tested on: SARS-CoV-2 spike protein pseudovirus; settings: Caco-2
# [7] = tested on: SARS-CoV-2 spike protein pseudovirus; type: cell-based; remark: listed apart in the source
# [8] = tested on: SARS-CoV-2 spike protein pseudovirus; type: cell-based; remark: listed apart in the source
# [9] = 293T/ACE2, 48 h, read-out: % Infectivity of SARS-2-Spike pv
# [10] = 10 µM; read-out: % infectivity (Table S3, kite-shaped molecules in order of inhibition)
# [11] = 293T/ACE2, read-out: IC50 of SARS-CoV-2-S pseudovirus infectivity
Compound,"activity at 10 µM [1, 9]",activity at 10 µM (VSV-G pseudovirus),viability (in vitro; % Viability of SARS-2-Spike pv),"IC50 [1, 11]",also measured
CCOC(=O)C1OC1C(=O)NC(CC(C)C)C(=O)NCCC(C)C (stereo not drawn) [E64d],9%,105%,95%,–,inhibition of SARS-CoV-1-S pseudovirus infection (SARS-CoV-1-S pseudovirus): inhibited; inhibition of MERS-CoV-S pseudovirus infection (MERS-CoV-S pseudovirus): inhibited
Cc1cncc(CN2CCC(=C3c4ccc(Cl)cc4CCc4cccnc43)CC2)c1.O=C(O)/C=C/C(=O)O [Rupatadine Fumarate],–,–,–,–,"activity [1, 10]: 38%; % viability (Table S3) (293T-ACE2 cells): 74%"
C[C@@H]1CCO[C@H]2Cn3cc(C(=O)NCc4ccc(F)cc4F)c(=O)c(O)c3C(=O)N12 [S/GSK1349572],–,–,–,–,"activity [1, 10]: 16.2%; % viability (Table S3) (293T-ACE2 cells): 94%"
CN(C)CCC=C1c2ccccc2CCc2ccccc21 [amitriptyline HCl],9%,80%,112%,4.98 µM,water solubility a [2]: 14 µM; water solubility b [3]: 99 mM
CCOC(=O)C1=C(COCCN)NC(C)=C(C(=O)OC)C1c1ccccc1Cl (stereo not drawn) [amlodipine besylate],–,–,–,–,% Infectivity of SARS-2-Spike pv [1]: 19%; % Infectivity of VSV-G pv (VSV-G pseudovirus): 100%; % Viability of SARS-2-Spike pv (293T-ACE2 cells; human): 116%
CCOC(=O)C1=C(COCCN)NC(C)=C(C(=O)OC)C1c1ccccc1Cl (stereo not drawn) [amlodipine],12%,–,115%,5.6 µM,% Infectivity of VSV-G pv (VSV-G pseudovirus): 78%; inhibition of SARS-CoV-1-S pseudovirus infection (SARS-CoV-1-S pseudovirus): significant inhibition; inhibition of MERS-CoV-S pseudovirus infection (MERS-CoV-S pseudovirus): non-significant inhibition; toxicity in Calu3 cells (word printed in Figure 7) (Calu3 cells): toxic
CN1CC2c3ccccc3Oc3ccc(Cl)cc3C2C1 (stereo not drawn) [asenapine],4%,71%,92%,–,combination effect with hydroxychloroquine on SARS-CoV-2 pseudovirus infectivity [1]: additive effects; water solubility a [2]: 78 µM; water solubility b [3]: 9 mM
CC[C@H]1OC(=O)[C@H](C)[C@@H](O[C@H]2C[C@@](C)(OC)[C@@H](O)[C@H](C)O2)[C@H](C)[C@@H](O[C@@H]2O[C@H](C)C[C@H](N(C)C)[C@H]2O)[C@](C)(O)C[C@@H](C)CN(C)[C@H](C)[C@@H](O)[C@]1(C)O [azithromycin],–,–,–,0.78 µM,% Infectivity of SARS-2-Spike pv [1]: 3%; % Infectivity of VSV-G pv (VSV-G pseudovirus): 93%; % Viability of SARS-2-Spike pv (293T-ACE2 cells; human): 100%
Cc1c(-c2ccc(O)cc2)n(Cc2ccc(OCCN3CCCCCC3)cc2)c2ccc(O)cc12.Cl [bazedoxifene Hcl],–,–,–,–,% Infectivity of SARS-2-Spike pv [1]: 3%; % Infectivity of VSV-G pv (VSV-G pseudovirus): 13%; % Viability of SARS-2-Spike pv (293T-ACE2 cells): 88%
CN(C)C(=O)COC(=O)Cc1ccc(OC(=O)c2ccc(NC(=N)N)cc2)cc1 [camostat mesylate],120%,–,–,–,% Infectivity of VSV-G pv (VSV-G pseudovirus): did not inhibit; inhibition of SARS-CoV-1-S pseudovirus infection (SARS-CoV-1-S pseudovirus): did not inhibit; inhibition of MERS-CoV-S pseudovirus infection (MERS-CoV-S pseudovirus): did not inhibit; % infectivity of SARS-CoV-2 pseudovirus in Calu3 cells [4]: inhibited; inhibition of SARS-CoV-2 pseudovirus infection of A549-ACE2 cells [5]: failed to inhibit; inhibition of SARS-CoV-2 pseudovirus infection of Caco2 cells [6]: inhibited
CCN(CC)CCCC(C)Nc1ccnc2cc(Cl)ccc12 (stereo not drawn) [chloroquine diphosphate],1%,83%,–,0.32 µM,inhibition of SARS-CoV-1-S pseudovirus infection (SARS-CoV-1-S pseudovirus): inhibited; inhibition of MERS-CoV-S pseudovirus infection (MERS-CoV-S pseudovirus): inhibited; inhibition of SARS-CoV-2 pseudovirus infection of A549-ACE2 cells [5]: failed to inhibit; viability (in vitro): 123%
CN(C)CCCN1c2ccccc2Sc2ccc(Cl)cc21 [chlorpromazine HCl],6%,58%,65%,3.79 µM,"% infectivity, drug added at 1 hpi (post-entry) [7]: 35%; water solubility a [2]: 12 µM; water solubility b [3]: 141 mM"
Cc1nc2c([nH]1)-c1ccccc1N(C(=O)c1ccc(NC(=O)c3ccccc3-c3ccccc3)cc1)CC2.Cl [conivaptan hcl],–,–,–,–,"activity [1, 10]: 52%; % viability (Table S3) (293T-ACE2 cells): 102%"
CCN(CCO)CCCC(C)Nc1ccnc2cc(Cl)ccc12 (stereo not drawn) [hydroxychloroquine sulfate],2%,103%,90%,0.66 µM,IC50 ([1]; read-out: IC50 of SARS-CoV-2-S pseudovirus infectivity): 0.7 µM; inhibition of SARS-CoV-1-S pseudovirus infection (SARS-CoV-1-S pseudovirus): inhibited; inhibition of MERS-CoV-S pseudovirus infection (MERS-CoV-S pseudovirus): inhibited; % infectivity in attachment assay [8]: did not inhibit attachment; inhibition of SARS-CoV-2 pseudovirus infection of A549-ACE2 cells [5]: failed to inhibit; water solubility a [2]: 60 µM; water solubility b [3]: 200 mM
"Cc1ccc(NC(=O)c2ccc(CN3CCN(C)CC3)cc2)cc1Nc1nccc(-c2cccnc2)n1 [imatinib mesylate, imatinib]",–,–,–,–,% Infectivity of SARS-2-Spike pv [1]: 1%; % Viability of SARS-2-Spike pv (293T-ACE2 cells; human): 22%
Cc1ccc(NC(=O)c2ccc(CN3CCN(C)CC3)cc2)cc1Nc1nccc(-c2cccnc2)n1 [imatinib],–,–,–,–,% Infectivity of SARS-2-Spike pv [1]: 81%; % Viability of SARS-2-Spike pv (293T-ACE2 cells; human): 103%
CN(C)CCCN1c2ccccc2CCc2ccccc21 [imipramine],16%,84%,99%,–,–

Compound,"activity at 10 µM [1, 9]",activity at 10 µM (VSV-G pseudovirus),viability (in vitro; % Viability of SARS-2-Spike pv),"IC50 [1, 11]",also measured
CNCCCC12CCC(c3ccccc31)c1ccccc12 [maprotiline HCl],9%,89%,99%,–,water solubility a [2]: 150 µM; water solubility b [3]: 159 mM
CC(C)COc1ccc(CNC(=O)N(Cc2ccc(F)cc2)C2CCN(C)CC2)cc1 [pimavanserin],3%,72%,70%,–,–
CN1CCC(=C2c3ccccc3CCc3sccc32)CC1 [pizotifen malate],7%,77%,106%,3.46 µM,% infectivity of SARS-CoV-2 pseudovirus in Calu3 cells [4]: 13%; water solubility a [2]: 16 µM
CN1CCN(CCCN2c3ccccc3Sc3ccc(Cl)cc32)CC1 [prochlorperazine],16%,80%,94%,–,–
CC(CN1c2ccccc2Sc2ccccc21)N(C)C (stereo not drawn) [promethazine HCl],11%,107%,99%,–,–
OCCOCCN1CCN(C2=Nc3ccccc3Sc3ccccc32)CC1 [quetiapine],–,–,–,–,"activity ([1]; read-out: % infectivity (Table S3, kite-shaped molecules in order of inhibition); 10 µM): 113%; % viability (Table S3) (293T-ACE2 cells; human): 101%"
O=C(c1ccc(OCCN2CCCCC2)cc1)c1c(-c2ccc(O)cc2)sc2cc(O)ccc12 [raloxifene HCl],5%,65%,92%,5.76 µM,–
CN[C@H]1CC[C@@H](c2ccc(Cl)c(Cl)c2)c2ccccc21 [sertraline HCl],8%,71%,95%,–,toxicity in Calu3 cells (word printed in Figure 7) (Calu3 cells): toxic
O=C(O[C@H]1CN2CCC1CC2)N1CCc2ccccc2[C@@H]1c1ccccc1 [solifenacin succinate],12%,86%,–,–,viability (in vitro): 99%
CN1CCN(c2nc(C3=C(c4c[nH]c5ccccc45)C(=O)NC3=O)c3ccccc3n2)CC1 [sotrastaurin],8%,76%,89%,6.89 µM,inhibition of SARS-CoV-1-S pseudovirus infection (SARS-CoV-1-S pseudovirus): significant inhibition; inhibition of MERS-CoV-S pseudovirus infection (MERS-CoV-S pseudovirus): non-significant inhibition
CC/C(=C(\c1ccccc1)c1ccc(OCCN(C)C)cc1)c1ccccc1 [tamoxifen citrate],10%,81%,107%,–,–
CCOC(=O)c1ccc(C#Cc2ccc3c(c2)C(C)(C)CCS3)nc1 [tazarotene],225%,102%,107%,–,–
CSc1ccc2c(c1)N(CCC1CCCCN1C)c1ccccc1S2 (stereo not drawn) [thioridazine HCl],6%,69%,71%,–,inhibition of SARS-CoV-1-S pseudovirus infection (SARS-CoV-1-S pseudovirus): significant inhibition; inhibition of MERS-CoV-S pseudovirus infection (MERS-CoV-S pseudovirus): non-significant inhibition; % infectivity in attachment assay [8]: 28%; % infectivity of SARS-CoV-2 pseudovirus in Calu3 cells [4]: 22%; water solubility a [2]: 2.1 µM; water solubility b [3]: 122 mM
CN1CCN(CCCN2c3ccccc3Sc3ccc(C(F)(F)F)cc32)CC1 [trifluoperazine 2HCl],5%,80%,83%,3.3 µM,inhibition of SARS-CoV-1-S pseudovirus infection (SARS-CoV-1-S pseudovirus): significant inhibition; inhibition of MERS-CoV-S pseudovirus infection (MERS-CoV-S pseudovirus): non-significant inhibition
CC(CN(C)C)CN1c2ccccc2CCc2ccccc21 (stereo not drawn) [trimipramine maleate],14%,95%,92%,5.35 µM,% infectivity of SARS-CoV-2 pseudovirus in Calu3 cells [4]: 8%; water solubility a [2]: 88 µM; water solubility b [3]: 5 mM
COc1cc2c(Nc3ccc(Br)cc3F)ncnc2cc1OCC1CCN(C)CC1 [vandetanib],1%,125%,–,6.45 µM,toxicity in Calu3 cells (word printed in Figure 7) (Calu3 cells): toxic; viability (in vitro): 89%
heparin sodium,–,–,–,–,% Infectivity of SARS-2-Spike pv [1]: 88%; % Viability of SARS-2-Spike pv (293T-ACE2 cells): 98%
